Source: article PMC6383948, “Evaluation of a class of isatinoids identified from a high-throughput screen of human kinase inhibitors as anti-Sleeping Sickness agents” (PLoS Neglected Tropical Diseases, 2019)
In brackets after ≈: the same amount, converted by molar mass. Where two headings read alike, the source gives them in different places.

Columns and labels:
T. b. brucei = T. b. brucei growth inhibition EC50 assay (resazurin, 72 h); format: cell-based, Trypanosoma brucei brucei Lister 427; conditions: for EC50: Trypanosoma brucei
Description: Mid-log phase growth T. b. brucei was diluted to a working cell density of 2,750 cells/mL and 90 μL/well dispensed into 96-well flat-bottom transparent assay plates (Nunc). Ten μL/well from intermediate plates were added. The final top concentration of compounds was 40 μM in 0.4% DMSO per well.
Assay plates were incubated for 72 h at 37°C and 5% CO2. Four hours prior to the end of the incubation, 20 μL of a 440 μM resazurin solution in prewarmed HMI-9 was added to each well and incubated for another 4 h. Fluorescence was then measured in an Infinite F200 plate reader (Tecan) at 550 nm (excitation filter) and 590 nm (emission filter). A 4-parameter equation was employed to fit the dose-response curves and determine of EC50 using the SigmaPlot 13.0 software. Assays were performed in duplicate at least twice, to achieve a minimal n = 3 per dose response.
Bloodstream Trypanosoma brucei brucei Lister 427 was cultured in Hirumi’s modified Iscove’s medium (HMI-9), supplemented with 10% heat-inactivated FBS, at 37 °C and 5% CO2 in T-25 vented flask (Corning®).
For dose-response experiments, compound plates were prepared for each analogue by serial 3-fold dilutions in 100% DMSO. Five concentration points (mammalian cytotoxicity) or ten concentration points (parasite growth inhibition), were made in 96-well transparent Nunclon plates. Pentamidine is routinely included in compound plates as internal quality control, and plates are stored sealed at -20 °C for no more than four weeks.

MRC5-SV2 cell line = experiment: Cytotoxicity assay in MRC5 (resazurin, 48 h); format: cell-based, human; conditions: MRC5 toxicity
Description: For dose-response experiments, compound plates were prepared for each analogue by serial 3-fold dilutions in 100% DMSO. Five concentration points (mammalian cytotoxicity) or ten concentration points (parasite growth inhibition), were made in 96-well transparent Nunclon plates. Pentamidine is routinely included in compound plates as internal quality control, and plates are stored sealed at -20 °C for no more than four weeks. Intermediate plates were made as described, adding 95 μL of DMEM complete media to 5 μL of compound per well setting a 5% DMSO amount. Log-phase MRC5 cells were removed from a T-75 TC flask using TrypLE® Express (Thermo®) and dispersed by gentle pipetting. Cell density was adjusted to working concentration in prewarmed DMEM medium: 25,000 cells in 90 μL of culture were plated in 96-well transparent Nunclon plates and let to settle for 24 h at 37 °C and 5% CO2. After settling incubation, 10 μL of fresh made intermediate plate were added per well: final maximal concentration for compounds was 50 μM in 0.5% DMSO per well. […] Fluorescence was read in an Infinite F200 plate reader (Tecan®) at 550 nm (excitation filter) and 590 nm (emission filter). A 4-parameter equation was used to fit the dose-response curves and determination of EC50 by SigmaPlot ® 13.0 software. Assays were performed in duplicate at least twice for positive compounds, to achieve a minimal n=3 per dose response.

[1] = Aqueous pH 7.4 solubility; format: physicochemical; conditions: pH 7.4 phosphate buffer, 25 °C, 20-24 h, read-out: Aq. Solubility
Description: Compounds are dried down from 10 mM DMSO solutions using centrifugal evaporation technique. Phosphate buffer (0.1 M pH 7.4) added and StirStix inserted in the glass vials, shaking is then performed at a constant temperature of 25 °C for 20-24 h. This step is followed by double centrifugation with a tip wash in between, to ensure that no residues of the dried compound are interfering. The solutions are diluted before analysis and quantification using LC/MS/MS is performed.

[2] = Human liver microsomal CLint; format: in vitro ADME; conditions: for microsomal CLint: human, liver microsomes, read-out: HLM Clint
Description: In vitro intrinsic clearance determined from human liver microsomes using a standard approach. Following incubation and preparation, the samples are analyzed using LC/MS/MS.

Rat hepatocyte CLint = format: in vitro ADME; conditions: rat hepatocytes
Description: In vitro intrinsic clearance determined from rat hepatocytes using a standard approach. Following incubation and preparation, the samples are analyzed using LC/MS/MS.

[3] = Human plasma protein binding (equilibrium dialysis); format: in vitro ADME; conditions: pH 7.4, read-out: PPB (converted)
Description: PPB is determined using equilibrium dialysis (RED device) to separate free from bound compound. The amount of compound in plasma (10 µM initial concentration) and in dialysis buffer (pH 7.4 phosphate buffer) is measured by LC-MS/MS after equilibration at 37 °C in a dialysis chamber. The fraction unbound (fu) is reported.

T. cruzi = experiment: β-D-Galactosidase transgenic T. cruzi assay (amastigote-infected L6 cells); format: cell-based, T. cruzi Tulahuen C4 strain; conditions: Trypanosoma cruzi, 96 h, read-out: T. cruzi pEC50 (converted)
Description: The T. cruzi Tulahuen C4 strain, expressing the β-galactosidase gene (LacZ) and L6 rat skeletal muscle cells, used as host cells, were cultured in RPMI-1640 supplemented with 10% iFBS, 2 mM L-glutamine, 100 U/mL penicillin, and 100 μg/mL streptomycin at 37 °C and 5% CO2.
A Thermo Scientific Multidrop Combi dispenser (MTX Lab Systems, Vienna, VA) was used to dispense 90 μL of T. cruzi amastigote–infected L6 cell culture (4×10^3 infected L6 cells per well) into 96-well Corning assay plates (Corning Inc., Corning, NY) already containing 10 μL of the compounds to be screened and controls. The plates were incubated at 37 °C for 96 h. Then, 30 μL of 100 μM CPRG and 0.1% NP40 diluted in PBS were added to each well, and the plates were incubated for 4 h at 37 °C in the dark. Absorbance at 585 nm was measured in a Vmax kinetic microplate reader ([…]). Compound activities were normalized using the in-plate negative (benznidazole at 10 μg/mL) and positive (0.2% DMSO) growth controls.

L. donovani = experiment: EC50 in L. donovani (infected THP-1 macrophages, luciferase); format: cell-based, Leishmania donovani MHOM/ET/67/HU3; conditions: Leishmania donovani, 72 h, read-out: L. donovani pEC50 (converted)
Description: Leishmania donovani MHOM/ET/67/HU3 cells with the luciferase gene integrated into the parasite genome[1] were grown at 28 °C in RPMI 1640-modified medium (Invitrogen) supplemented with 20% FBS with […] of hygromycin B.
The Human myelomonocytic cell line THP-1 was grown at 37 °C and 5% CO2 in RPMI-1640 supplemented with 10% iFBS, 2 mM […], 100 U/mL penicillin and […] streptomycin. 3 x 10^4 THP-1 cells per well in 96-well plates were differentiated to macrophages with 20 ng/mL of PMA treatment for 48 h followed by 24 h of culture in fresh medium.
Macrophage-differentiated THP-1 cells were infected at a macrophage/parasite ratio of 1/10 with stationary L. donovani promastigotes for 24 h at 35 °C and 5% CO2, and extracellular parasites were removed by washing with PBS. Infected cell cultures were then incubated with different compounds concentrations at 37 °C for 72 h. Luminescence was measured using the Promega kit luciferase assay system (Promega, Madison, WI). Assays were performed in duplicate at least twice, to achieve a minimal n=3 per dose response.

[4] = 72 h, resazurin, error within ±0.20 (Table 2) or ±0.08 (Table 3) log units, read-out: T.b.b. pEC50 (converted)
[5] = aqueous buffer, thermodynamic from solid

CN(C)S(=O)(=O)c1ccc(N/N=C2\C(=O)Nc3ccccc32)cc1 [NEU-2118, (Z)-N,N-Dimethyl-4-(2-(2-oxoindolin-3-ylidene)hydrazinyl)benzenesulfonamide]
EC50 (T. b. brucei; [4]): 1580 nM | MRC5 pTC50 (MRC5-SV2 cell line): <4.3 | solubility [1, 5]: < 1 µM | microsomal CLint [2]: 38.2 µL/min/mg | hepatocyte CLint (Rat hepatocyte CLint): 146 µL/min/1e6 cells | fraction unbound at 10 µM [3]: 0.01 | EC50 (T. cruzi): > 10000 nM | EC50 (L. donovani): > 10000 nM

CNS(=O)(=O)c1ccc(N/N=C2\C(=O)Nc3ccccc32)cc1 [NEU-2124, (Z)-N-Methyl-4-(2-(2-oxoindolin-3-ylidene)hydrazinyl)benzenesulfonamide]
EC50 (T. b. brucei; [4]): 5010 nM | MRC5 pTC50 (MRC5-SV2 cell line): <4.3 | solubility [1, 5]: < 39 µM | solubility [1]: > 10 µM | microsomal CLint [2]: 20.3 µL/min/mg | hepatocyte CLint (Rat hepatocyte CLint): 36.4 µL/min/1e6 cells | fraction unbound at 10 µM [3]: 0.02 | EC50 (T. cruzi): > 10000 nM | EC50 (L. donovani): > 10000 nM

CNS(=O)(=O)c1ccc(N/N=C2\C(=O)Nc3cccc(C=C(C)C)c32)cc1 [NEU-4391, (Z)-N-Methyl-4-(2-(4-(2-methylprop-1-en-1-yl)-2-oxoindolin-3-ylidene)hydrazinyl)benzenesulfonamide]
activity against T. brucei (T. b. brucei): sub-micromolar activity | EC50 (T. b. brucei; [4]): 158 nM | EC50 (T. b. brucei; T. brucei, read-out: EC50): 84 nM | MRC5 pTC50 (MRC5-SV2 cell line): <4.3 | solubility [1]: 4 µM (≈ 1.54 µg/mL) | HLM Clint ([2]; human liver microsomes): 8.63 µL/min/mg | microsomal CLint [2]: 8.6 µL/min/mg | hepatocyte CLint (Rat hepatocyte CLint): 103 µL/min/1e6 cells | fraction unbound at 10 µM [3]: < 0.04 | EC50 (T. cruzi): 2240 nM | EC50 (L. donovani): > 5010 nM
